Measurements taken from paper PMC10755693, “Widespread Family of NAD^+-Dependent Sulfoquinovosidases at the Gateway to Sulfoquinovose Catabolism” (Journal of the American Chemical Society, 2023).

Target: T1, ArSqgA (Arthrobacter sp. U41, UniProt Z9RXK5N058)
T1 construct: synthetic gene with codons harmonized for E. coli; homodimer; GH188
T1 sequence (Z9RXK5N058 14-392): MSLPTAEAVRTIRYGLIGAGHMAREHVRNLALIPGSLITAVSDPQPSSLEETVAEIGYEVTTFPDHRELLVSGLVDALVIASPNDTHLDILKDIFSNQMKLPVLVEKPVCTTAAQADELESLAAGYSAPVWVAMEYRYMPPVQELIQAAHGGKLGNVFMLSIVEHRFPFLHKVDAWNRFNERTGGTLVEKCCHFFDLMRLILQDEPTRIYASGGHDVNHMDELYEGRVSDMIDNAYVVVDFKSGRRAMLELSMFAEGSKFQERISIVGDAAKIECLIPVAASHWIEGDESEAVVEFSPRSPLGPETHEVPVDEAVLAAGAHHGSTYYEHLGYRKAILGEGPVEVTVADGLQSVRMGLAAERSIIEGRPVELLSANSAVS
Test: X-ray crystal structure, […] Å
Assay type: binding
Conditions: Rossmann domain cleft; binary complex

Q: How did the “X-ray crystal structure, 2.65 Å” value turn out when `NC(=O)c1ccc[n+]([C@@H]2O[C@H](COP(=O)(O)OP(=O)(O)OC[C@H]3O[C@@H](n4cnc5c(N)ncnc54)[C@H](O)[C@@H]3O)[C@@H](O)[C@H]2O)c1` [NAD^+] was run?
A: modeling of a single molecule of NAD^+ bound in an extended conformation in each monomer
